Results published in patent publication US7615361B2, “Toxicity screening methods” (Ceetox, Inc., priority 2006, dated 2009).
Values belong to the compound of their own block, whether it stands above or below them. No end group written: not given here.

Legend:
ANP = assay: bDNA analysis of mRNA in rat cardiomyocytes; assay type: cell-based; conditions: rat cardiomyocytes
Source text: (§1) Hypertrophy of the heart ventricular myocytes is regulated by a complex series of intracellular signaling processes involving angiotensin receptors and a series of down stream gene expression changes (Li et al. 2006). Endothelin-1 (ET-1) induces hypertrophy of cardiomyocytes in vivo and in vitro. The mechanism of ET-1-induced hypertrophy consists in the activation of phospholipase C, protein kinase C, extra cellular signal regulated kinase (ERK) and upregulation of cfos and cjun.
(§2) Expression of ANP and BNP mRNA levels was determined by bDNA analysis of mRNA. ET-1 at 0.1 μM was included as a positive control.
(§3) […] Plates were mixed using a DPC 5 Micromix plate shaker at 37° C. for 15-30 minutes to ensure complete lysis of cells. Cell lysis was confirmed using a Nikon inverted microscope. Plates were stored at −80° C. until further analysis.
(§4) bDNA Analysis (Day 1): All solutions were prepared fresh on the day of analysis. Quantigene® bDNA kit components were brought to room temperature prior to use. Chemicals not supplied by Genospectra were obtained from Sigma-Aldrich.
(§5) On the day of analysis, Target Probe Sets were prepared for probe gene sets by adding 25 μL of each probe set component (CE, LE, BL) to 425 μL stock lysis solution using the following probe set concentrations: CE (50 fmol/μL), LE (200 fmol/μL), BL (100 fmol/μL).
(§6) Cell lysis plates were removed from freezer storage and thawed. […] Next, 10 μL of the appropriate Target Probe Set (PS2) was added to each appropriate well of the Capture Plate. Plates were tightly sealed using a plate sealer and incubated at 53° C. for 16-20 hr (overnight).
(§7) bDNA Analysis (Day 2): Wash buffer was prepared in ultra-pure water using 0.1×Saline-Sodium Citrate (SSC) and 0.03% Lithium Lauryl Sulfate (LLS). Amplifier working solution was prepared by adding 10 μL Amplifier to 10 mL Amplifier Diluent per plate.
(§8) Plates were removed from incubator and washed three times with 300 μL wash buffer. Wash buffer was completely removed from plates by aspiration and 100 μL Amplifier working solution was added to each well. Plates were sealed and incubated at 46° C. for 1 hr.
(§9) Label Probe working solution was prepared by adding 10 μL Label Probe to 10 mL Label Probe Diluent per plate. […] Plates were sealed and incubated at 46° C. for 1 hr.

[1] = test system: H4IIE tumor cells, NRK cells, rat primary hepatocytes; assay: Anti-tumor screen in three rat cell types; assay type: cell-based
Source text: In the Anti-tumor screen of the present invention, at least three different cell types are utilized: (1) tumor derived cells, (2) proliferating cells from normal tissue, and (3) non-proliferating cells from normal tissue. The evaluation of anti-tumor agents in multiple cell types provides information on mechanism-based toxicity versus efficacy.
The anti-tumor agent can be evaluated in a toxicity screen of key biochemical functions (as described in detail herein above), with emphasis placed on cell proliferation assays as well as biochemical function and cell viability. Comparisons can then be made to quantitative markers in the concentration response curves constructed with the toxicity data.
It is hypothesized to act through mitochondrial toxicity as well as apoptosis.

rat cardiomyocytes [2] = assay: MTT reduction; assay type: cell-based
Description: (§10) One test compound (Compound A) was received as dry powder and evaluated for potential cytotoxicity in a battery of in vitro assays. The compound was tested using both rat cardiomyocytes (CM) from rat neonates and a rat hepatoma (H4IIE) cell line. […] The cell supernatant or the cells themselves were harvested for biochemical analysis. General cytotoxicity was evaluated by monitoring membrane integrity, mitochondrial function, cell proliferation, oxidative stress, and apoptosis. In addition, interaction with P-glycoprotein (PgP) on H4IIE cells and solubility of the test compound were also assessed. The means of each exposure group (n=3-7) were calculated for each assay performed.
(§11) Tetrazolium Dye Reduction: 3-[4,5-dimethylthiazol-2-yl]

[3] = Cell number (propidium iodide); assay type: cell-based, rat; conditions: rat, Cell Number TC50
Description: as §10
(§12) Experimental Protocol: The test compound was provided and stored at 4° C. until needed. Dosing solutions were prepared in complete culture medium. The rat hepatoma (H4IIE) cell line was used as the test system.
Cell Proliferation: Cell proliferation in each well was measured with propidium iodide (PI). This specific nucleic acid binding dye fluoresces when intercalated within the nucleic acids. The 15 nm shift enhances PI fluorescence approximately 20 times while the excitation maxima are shifted 30-40 nm. During method development experiments, it was determined that Triton-X-100 was the best solution to permeabilize the H4IIE cells thereby allowing the PI access to intracellular RNA and DNA. Fluorescence was measured using a Packard Fusion plate reader or equivalent reader at 540 nm excitation and 610 nm emission.
Cell Proliferation: After incubation, the test compound was removed and Triton X-100 solution containing propidium iodide is added. The plate was incubated and read on a fluorescent plate reader. Data was collected as relative fluorescent units (RFU). The blank was subtracted from the final well RFU. It represents the average of the first and last columns which contain no cells on that particular plate. The controls are untreated cells allowed to grow on the same plate. The compounds are represented by several separate RFU data points for each of the tested concentrations. The percent change relative to controls was calculated by dividing the average RFU by the control cell RFU and multiplying by 100.

[4] = MemTox membrane leakage (AK / α-GST); assay type: cell-based, rat; conditions: rat
Description: as §10
(§13) Membrane Leakage (α-Glutathione S-transferase and/or Adenylate Kinase): The presence of Adenylate Kinase (AK) or α-Glutathione S-transferase (α-GST), both enzyme leakage markers, was measured in the culture medium using an activity assay for Adenylate Kinase and/or an ELISA assay for α-GST. At the end of the exposure period, the medium covering the cells in each well was removed and placed into new 96-well plates with appropriate labeling. […] Luminescence (AK) values were measured with a Packard Fusion or equivalent plate reader, and absorbance (α-GST) values were measured with a Packard SpectraCount™ or equivalent reader at 450 nm and reference absorbance at 650 nm.
(§14) Membrane Leakage (α-Glutathione S-transferase and/or Adenylate Kinase): Leakage of Adenylate Kinase or α-GST from the cell into the culture medium was determined by collecting the culture medium at the end of the exposure period. Thus, the values measured represent total enzyme leakage lost over the exposure period. The control for 100% dead or maximum enzyme release was based on cells treated with 1 mM digitonin at the time of dosing. Percent dead cells relative to digitonin treated cells was determined and then subtracted from 100% to yield the percent live cells.

[5] = MemTox membrane leakage (AK / α-GST); assay type: cell-based, rat; conditions: rat, MemTox TC50
Description: as §10, §12, §13, §14

MTT reduction [6] = assay type: cell-based, rat; conditions: rat
Description: as §10, §11

MTT reduction [7] = assay type: cell-based, rat; conditions: rat, MTT TC50
Description: as §10, §12, §11

Intracellular ATP levels [8] = assay type: cell-based, rat; conditions: rat
Description: as §10
(§15) Intracellular ATP Levels: Cellular Adenosine triphosphate (ATP) was determined with an assay based on a reaction between ATP+D-luciferin+oxygen catalyzed by luciferase to yield Oxyluciferin+AMP+PPi+CO2+light. The emitted light is proportional to the amount of ATP present. […] In addition, a unique cell lysis reagent inhibits endogenous ATPases and therefore stabilizes cellular ATP by preventing its degradation to ADP. ATP is present in all-living cells and declines rapidly upon cell death. In addition, this assay in combination with the MTT assay provides an indicator of mitochondrial activity and energy status of the cell.
(§16) Plates were analyzed immediately or stored at −20° C. until needed. On the day of analysis, the plates were thawed and calibration curve prepared with ATP in the same liquid matrix as samples. ATP was quantified by adding ATP substrate solution and then reading luminescence on a Packard Fusion Luminescence or equivalent plate reader.
(§17) Intracellular ATP Levels: ATP levels in treated cells could be determined by using the regression coefficients obtained from the linear regression analysis of the calibration curve. Thus, values could be expressed as pmoles ATP/million cells. Background corrected luminescence was used to determine percent change relative to controls by dividing treated values by control values and multiplying by 100.

Intracellular ATP levels [9] = assay type: cell-based, rat; conditions: rat, ATP TC50
Description: as §10, §12, §15, §16, §17

H4IIE cells [10] = assay: Predicted Ctox from Tox-Panel; assay type: cell-based, rat; conditions: 24 HR, estimated sustained plasma concentration where toxicity would be expected in vivo
Description: Once all data for a given cluster of assays are received, the data are analyzed to obtain a detailed profile of the compound's toxicity. For example, most conveniently, the data are collated over a dose response range on a single graph. In such an embodiment, the measurement evaluated for each parameter (i.e., each indicator of cell health) at any given concentration is plotted as a percentage of a control measurement obtained in the absence of the compound. However, it should be noted that the data need not be plotted on a single graph, so long as all the parameters are analyzed collectively to yield detailed information of the effects of the concentration of the compound on the different parameters to yield an overall toxicity profile. As set forth below, this overall toxicity profile will facilitate a determination of a plasma concentration Ctox that is predicted to be toxic in vivo. Ctox represents an estimate of the sustained plasma concentration in vivo that would result in toxicity, such as hepatotoxicity or hematopoietic toxicity.
Studies such as these indicate that a preferred concentration for setting Ctox is the highest concentration at which there is no observed effect on any of the indicators being measured in the cluster analysis, especially a 24-hour cluster analysis. […] It will be apparent that 24 hour assays are more time-effective, and consequently, the 24 hour NOEL/Ctox represents a preferred data point to select as Ctox in a CATS assay. It will also be apparent that, with further time studies, it may be possible to select an equally suitable Ctox at other CATS assay time points (e.g., between 24 and 72 hours, or less than 24 hours).
In certain embodiments, the predicting comprises performing concentration response analyses of measurements from at least three separate assays that are employed in the cluster analysis. For example, in the cell health cluster, such predicting will involve monitoring the concentration response effect of the compound on a first health indicator which monitors cellular replication, a second cell health indicator which monitors mitochondrial function, and a third cell health indicator which monitors membrane integrity. Of course, it is understood that fourth, fifth, sixth or more cell health indicators also may be employed. From these concentration response analyses, the highest concentration of the chemical compound at which a measurable toxic effect of the chemical compound is not observable, i.e. NOEL, is determined and the Ctox is identified as the concentration that correlates to the NOEL. In choosing the concentrations of the compound for analysis, one of skill in the art should devise a dose response regimen which is selected to provide an indication of cell health at concentrations of at least two concentration values higher than the Ctox concentration.
The Ctox (H4IIE) value was developed using 24 hr in vitro toxicity data and was validated by retrospectively evaluating compounds across different classes of drugs in 14-day rat studies in which compounds were administered on a daily basis and pharmacokinetic data was available. […] Thus, Ctox values are only determined for the 24 hr in vitro results. The 6 hr toxicity analyses are typically not performed but are beneficial for interpretation of results when compound toxicity is high (e.g., Ctox≦20 μM).

[11] = Intracellular total glutathione (GSH); assay type: cell-based, rat; conditions: rat
Description: as §10

[12] = Intracellular total glutathione (GSH); assay type: cell-based, rat; conditions: rat, Total GSH TC50
Description: as §10, §12

P-glycoprotein (PgP) = P-glycoprotein (PgP) binding: MTT with and without cyclosporin A; assay type: cell-based, rat; conditions: H4IIE 24 HR; for % Control (Compound + CSA) / % Control (Compound): MTT, 50 μM; for % Control (Compound + CSA): with cyclosporin A; for % Control (Compound): without CSA; for % Difference: 1-20% low, 20-50% moderate, 50-100% high PgP interaction
Description: Several antiviral drugs are substrates for P-glycoprotein transporter (PgP).
P-glycoprotein (PgP) transport proteins are expressed in the bile canalicular membrane of normal liver. However, in neoplastic cells it is not uncommon to have expression of this transporter system in the plasma membrane. […] The existence of these transporters was evaluated with the Calcein-AM assay and with known substrates of PgP.

BNP = assay: bDNA analysis of mRNA in rat cardiomyocytes; assay type: cell-based; conditions: rat cardiomyocytes, 0.1 μM, after 3 hr
Source text: as §1, §2, §3, §4, §5, §6, §7, §8, §9

rat cardiomyocytes [13] = assay: Membrane lipid peroxidation (8-isoprostane ELISA); assay type: cell-based; conditions: rat, 24 h
Description: (§18) One test compound (Compound A) was received as dry powder and evaluated for potential cytotoxicity in a battery of in vitro assays. The compound was tested using both rat cardiomyocytes (CM) from rat neonates and a rat hepatoma (H4IIE) cell line. […] Camptothecin and rotenone were included as positive control compounds. The cell supernatant or the cells themselves were harvested for biochemical analysis. General cytotoxicity was evaluated by monitoring membrane integrity, mitochondrial function, cell proliferation, oxidative stress, and apoptosis. In addition, interaction with P-glycoprotein (PgP) on H4IIE cells and solubility of the test compound were also assessed. The means of each exposure group (n=3-7) were calculated for each assay performed. Intra assay variation well-to-well was typically less than 10% with plate to plate variation typically less than 20%.

H4IIE cells [14] = assay: Membrane lipid peroxidation (8-isoprostane ELISA); assay type: cell-based, rat; conditions: rat, 24 h
Description: as §18, §12

- potency in heart cells relative to H4IIE liver cells (rat cardiomyocytes [2]): three to four-fold more potent
Compound: Cc1ccc(NC(=O)c2ccc(CN3CCN(C)CC3)cc2)cc1Nc1nccc(-c2cccnc2)n1 [Imatinib]

- % Difference (P-glycoprotein (PgP)): 21.9%
Compound: Cc1ccnc2c1NC(=O)c1cccnc1N2C1CC1 [NEVIRAPINE, nevirapine]
- CC50 at 24 h [3]: > 300 µM
- CC50 at 24 h [4]: > 300 µM
- CC50 at 24 h [5]: > 300 µM
- CC50 at 24 h (MTT reduction [6]): > 300 µM
- CC50 at 24 h (MTT reduction [7]): > 300 µM
- CC50 at 24 h (Intracellular ATP levels [8]): > 300 µM
- CC50 at 24 h (Intracellular ATP levels [9]): > 300 µM
- Predicted Ctox (H4IIE cells [10]): 100 µM
- CC50 at 24 h [11]: 251 µM
- CC50 at 24 h [12]: > 300 µM
- % Control (Compound + CSA) (P-glycoprotein (PgP)): 90.2%
- % Control (Compound) (P-glycoprotein (PgP)): 115.5%

- Membrane Lipid Peroxidation (rat cardiomyocytes [13]): 0
- Membrane Lipid Peroxidation (H4IIE cells [14]): 0
- % Difference (P-glycoprotein (PgP)): 19.0%
Compound: CC(C)c1nc(CN(C)C(=O)N[C@H](C(=O)N[C@@H](Cc2ccccc2)C[C@H](O)[C@H](Cc2ccccc2)NC(=O)OCc2cncs2)C(C)C)cs1 [RITONAVIR, ritonavir]
- Predicted Ctox (H4IIE cells [10]): 52 µM
- % Control (Compound + CSA) (P-glycoprotein (PgP)): 81.5%
- % Control (Compound) (P-glycoprotein (PgP)): 100.6%

More lines, now with the values behind:

Compound: CS(=O)(=O)c1ccc(C2=C(c3ccccc3)C(=O)OC2)cc1 [Vioxx]
- induction of the hypertrophy marker ANP, Vioxx versus Celebrex (ANP; normalized with GAPDH): more effective at inducing the hypertrophy marker ANP

Compound: CN(Cc1cnc2nc(N)nc(N)c2n1)c1ccc(C(=O)N[C@@H](CCC(=O)O)C(=O)O)cc1 [Methotrexate]
- sensitivity of cell types in the anti-tumor screen [1]: the tumor cell line is most sensitive to mitochondrial damage

Compound: Endothelin-1 (CSCSSLMDKECVYFCHLDIIW; ends and bridges not checked; cysteine pairing not given here; UniProt P05305 53-73, looked up) [ET-1, positive control inducing cardiomyocyte hypertrophy]
- ANP expression increase (ANP; 0.1 μM, after 3 hr): approximately 2 fold
- BNP expression increase (BNP): approximately 4.5 fold
